Experimental data: patent publication US12065429B2, “Small molecule modulators of IL-17” (LEO Pharma A/S, priority 2022, dated 2024)
In brackets after ≈: the same amount, converted by molar mass.

Experiments:
[1] = Human liver microsome (HLM) clearance assay; assay type: in vitro ADME; settings: human liver microsomes 0.5 mg/mL, NADPH 1 mM, 0.5 μM compound, 40 min
Procedure: Example 63: Human Liver Microsome (HLM) Clearance Assay
Samples were taken out before addition of NADPH, and at 5, 10, 20 and 40 minutes thereafter and protein precipitation using cold acetonitrile with added internal standard was performed prior to centrifugation and sample analysis using compound specific LCMS/MS methods. Control incubations in buffer and without NADPH were performed in the same manner. Compound depletion was determined and apparent clearance (CLapp) was calculated.

Solubility assay = assay type: physicochemical; settings: 0.067 M phosphate buffer pH 6.5, 24 hours shaking, from 10 mM DMSO stock; for solubility at 24 h: aqueous buffer, kinetic from dmso stock
Procedure: After centrifugation, the supernatant was analyzed by HPLC-UV. The solubility was defined as the concentration of the test substance in the selected solvent. It was determined by correlation with an external standard calibration curve.

recombinant IL-17AA = molecular target: T1, recombinant IL-17AA (Homo sapiens, UniProt Q16552); experiment: Inhibition of recombinant IL-17AA-induced SEAP reporter gene activity in HEK-Blue IL-17 cells; assay type: cell-based; settings: recombinant IL-17A 2 ng/ml, overnight
T1 construct: purchased R&D Systems 7955-IL
T1 sequence (Q16552 24-155): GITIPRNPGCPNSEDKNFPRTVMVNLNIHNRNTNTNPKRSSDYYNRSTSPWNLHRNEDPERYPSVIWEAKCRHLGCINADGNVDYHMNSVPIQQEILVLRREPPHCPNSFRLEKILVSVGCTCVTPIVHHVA
Procedure: Example 62: Inhibition of Recombinant IL-17AA-Induced SEAP Reporter Gene Activity in HEK-Blue™ IL-17 Cells
The assay was run according to the protocol provided by InvivoGen. Briefly, the HEK-Blue™ IL-17 cells (Invivogen, cat #hkb-il17) were suspended in the complete culture medium and seeded in a 96 well plate in a volume of 80 μl in a density of 50,000 cells per well the day before the assay. 10 μl of a solution of the test compounds were added in a serial gradient dilution to the cells followed by the addition of 10 μl IL-17A (R&D Systems cat #7955-IL) in a final concentration of 2 ng/ml. The plate was incubated overnight. The QUANTI-Blue™ solution was used to determine the SEAP activity; 180 μl QUANTI-Blue™ solution and 20 μl of the supernatant from the cell plate were mixed and incubated for 1 hour at 37 degrees Celsius. SEAP levels were measured using a spectrophotometer at 650 nm.

| Structure (SMILES) | HLM Clapp [1] [mL/min/kg] | solubility at 24 h (Solubility assay) [µg/mL] | EC50 (recombinant IL-17AA) [nM] | Solubility at pH 6.5 (Solubility assay) [μg/mL] |
| --- | --- | --- | --- | --- |
| CCOc1cc(-c2ccc(NC(=O)[C@@H](NC(=O)c3ccnn3C(C)C)C(C3CC3)C3CC3)nc2F)c(C)[n+]([O-])c1 [Example 10, N-[(1S)-1-(dicyclopropylmethyl)-2-[[5-(5-ethoxy-2-methyl-1-oxido-pyridin-1-ium-3-yl)-6-fluoro-2-pyridyl]amino]-2-oxo-ethyl]-2-isopropyl-pyrazole-3-carboxamide] | 22 | 9 (≈ 16.3 µM) | – | – |
| Cc1c(-c2ccc(NC(=O)[C@@H](NC(=O)c3ccnn3C(C)C)C(C3CC3)C3CC3)nc2F)cc(F)c[n+]1[O-] [Example 2, N-[(1S)-1-(dicyclopropylmethyl)-2-[[6-fluoro-5-(5-fluoro-2-methyl-1-oxido-pyridin-1-ium-3-yl)-2-pyridyl]amino]-2-oxo-ethyl]-2-isopropyl-pyrazole-3-carboxamide] | <8 | 26 (≈ 49.6 µM) | – | – |
| Cc1cc(-c2ccc(NC(=O)[C@@H](NC(=O)c3ccnn3C(C)C)C(C3CC3)C3CC3)nc2F)c(C2CC2)[n+]([O-])c1 [Example 13, N-[(1S)-2,2-dicyclopropyl-1-[[5-(2-cyclopropyl-5-methyl-1-oxido-pyridin-1-ium-3-yl)-6-fluoro-2-pyridyl]carbamoyl]ethyl]-2-isopropyl-pyrazole-3-carboxamide] | 14 | 26 (≈ 47.6 µM) | – | – |
| Cc1c(-c2ccc(NC(=O)[C@@H](NC(=O)c3ccnn3C(C)C)C(C3CC3)C3CC3)nc2F)c(C(F)(F)F)cc[n+]1[O-] (single isomer, unassigned) [Example 54] | 63 | < 1 | – | – |
| Cc1c(-c2ccc(NC(=O)[C@@H](NC(=O)c3ccnn3C(C)C)C(C3CC3)C3CC3)nc2F)cc(Cl)c[n+]1[O-] [Example 11, N-[(1S)-1-[[5-(5-chloro-2-methyl-1-oxido-pyridin-1-ium-3-yl)-6-fluoro-2-pyridyl]carbamoyl]-2,2-dicyclopropyl-ethyl]-2-isopropyl-pyrazole-3-carboxamide] | <8 | 6.5 (≈ 12 µM) | – | – |
| Cc1c(-c2ccc(NC(=O)[C@@H](NC(=O)c3ccnn3C(C)C)C(C3CC3)C3CC3)nc2F)cc(OC(F)F)c[n+]1[O-] [Example 8, N-[(1S)-1-(dicyclopropylmethyl)-2-[[5-[5-(difluoromethoxy)-2-methyl-1-oxido-pyridin-1-ium-3-yl]-6-fluoro-2-pyridyl]amino]-2-oxo-ethyl]-2-isopropyl-pyrazole-3-carboxamide] | 8 | 8 (≈ 14 µM) | – | – |
| CCc1cc[n+]([O-])cc1-c1ccc(NC(=O)[C@@H](NC(=O)c2ccnn2C(C)C)C(C2CC2)C2CC2)nc1F [Example 53, N-[(1S)-1-(dicyclopropylmethyl)-2-[[5-(4-ethyl-1-oxido-pyridin-1-ium-3-yl)-6-fluoro-2-pyridyl]amino]-2-oxo-ethyl]-2-isopropyl-pyrazole-3-carboxamide] | <8 | 39 (≈ 74.9 µM) | – | – |
| COc1cc(-c2ccc(NC(=O)[C@@H](NC(=O)c3ccnn3C(C)C)C(C3CC3)C3CC3)nc2F)c(C)[n+]([O-])c1 [Example 1, N-[(1S)-1-(dicyclopropylmethyl)-2-[[6-fluoro-5-(5-methoxy-2-methyl-1-oxido-pyridin-1-ium-3-yl)-2-pyridyl]amino]-2-oxo-ethyl]-2-isopropyl-pyrazole-3-carboxamide] | 12 | 29 (≈ 54 µM) | 11 | – |
| Cc1cc(-c2ccc(NC(=O)[C@@H](NC(=O)c3ccnn3C(C)C)C(C3CC3)C3CC3)nc2F)c(C)[n+]([O-])c1 [Example 3, N-[(1S)-1-(dicyclopropylmethyl)-2-[[5-(2,5-dimethyl-1-oxido-pyridin-1-ium-3-yl)-6-fluoro-2-pyridyl]amino]-2-oxo-ethyl]-2-isopropyl-pyrazole-3-carboxamide] | <8 | 45 (≈ 86.4 µM) | 17 | – |
| Cc1c[n+]([O-])cc(-c2ccc(NC(=O)[C@@H](NC(=O)c3ccnn3C(C)C)C(C3CC3)C3CC3)nc2F)c1C [Example 52, N-[(1S)-1-(dicyclopropylmethyl)-2-[[5-(4,5-dimethyl-1-oxido-pyridin-1-ium-3-yl)-6-fluoro-2-pyridyl]amino]-2-oxo-ethyl]-2-isopropyl-pyrazole-3-carboxamide] | <8 | 4 (≈ 7.68 µM) | – | – |
| Cc1cc[n+]([O-])cc1-c1ccc(NC(=O)[C@@H](NC(=O)c2ccnn2C(C)C)C(C2CC2)C2CC2)nc1F [Example 15, N-[(1S)-1-(dicyclopropylmethyl)-2-[[6-fluoro-5-(4-methyl-1-oxido-pyridin-1-ium-3-yl)-2-pyridyl]amino]-2-oxo-ethyl]-2-isopropyl-pyrazole-3-carboxamide] | <8 | 97 (≈ 191 µM) | – | – |
| CCCn1nccc1C(=O)N[C@H](C(=O)Nc1ccc(-c2cc(C)c[n+]([O-])c2C)c(F)n1)C(C1CC1)C1CC1 [Example 20, N-[(1S)-1-(dicyclopropylmethyl)-2-[[5-(2,5-dimethyl-1-oxido-pyridin-1-ium-3-yl)-6-fluoro-2-pyridyl]amino]-2-oxo-ethyl]-2-propyl-pyrazole-3-carboxamide] | 74 | 38 (≈ 73 µM) | – | – |
| Cc1c(-c2ccc(NC(=O)[C@@H](NC(=O)c3ccnn3C(C)C)C(C3CC3)C3CC3)nc2F)c[n+]([O-])cc1C(F)F [Example 48, N-[(1S)-1-(dicyclopropylmethyl)-2-[[5-[5-(difluoromethyl)-4-methyl-1-oxido-pyridin-1-ium-3-yl]-6-fluoro-2-pyridyl]amino]-2-oxo-ethyl]-2-isopropyl-pyrazole-3-carboxamide] | <8 | 19 (≈ 34.1 µM) | – | – |

More lines, now with the values ahead:

| HLM Clapp [1] [mL/min/kg] | solubility at 24 h (Solubility assay) [µg/mL] | EC50 (recombinant IL-17AA) [nM] | Solubility at pH 6.5 (Solubility assay) [μg/mL] | Structure (SMILES) |
| --- | --- | --- | --- | --- |
| 10 | 14 (≈ 23.9 µM) | 100 | – | Cc1c(-c2ccc(NC(=O)[C@@H](NC(=O)c3ccnn3C(C)C)C(C3CC3)C3CC3)nc2F)cc(S(C)(=O)=O)c[n+]1[O-] [Example 58, N-[(1S)-1-(dicyclopropylmethyl)-2-[[6-fluoro-5-(2-methyl-5-methylsulfonyl-1-oxido-pyridin-1-ium-3-yl)-2-pyridyl]amino]-2-oxo-ethyl]-2-isopropyl-pyrazole-3-carboxamide] |
| 18 | – | 740 | <1 | Cc1cc[n+]([O-])c(C)c1-c1ccc(NC(=O)[C@@H](NC(=O)c2ccnn2C(C)C)C(C2CC2)C2CC2)nc1Cl (single isomer, unassigned) [Example 57] |
| – | – | 31 | – | CCc1c(-c2ccc(NC(=O)[C@@H](NC(=O)c3ccnn3C(C)C)C(C3CC3)C3CC3)nc2F)cc(OC)c[n+]1[O-] [Example 60, N-[(1S)-1-(dicyclopropylmethyl)-2-[[6-fluoro-5-(5-methoxy-2-ethyl-1-oxido-pyridin-1-ium-3-yl)-2-pyridyl]amino]-2-oxo-ethyl]-2-isopropyl-pyrazole-3-carboxamide] |
| 16 | < 1 | 4.6 | – | Cc1cc[n+]([O-])c(C)c1-c1ccc(NC(=O)[C@@H](NC(=O)c2ccnn2C(C)C)C(C2CC2)C2CC2)nc1Cl (single isomer, unassigned) [Example 56] |
| <9 | 29 (≈ 54.6 µM) | 46 | – | Cc1c(-c2ccc(NC(=O)[C@@H](NC(=O)c3ccnn3C(C)C)C(C3CC3)C3CC3)nc2F)cc(C#N)c[n+]1[O-] [Example 59, N-[(1S)-1-[[5-(5-cyano-2-methyl-1-oxido-pyridin-1-ium-3-yl)-6-fluoro-2-pyridyl]carbamoyl]-2,2-dicyclopropyl-ethyl]-2-isopropyl-pyrazole-3-carboxamide] |
| 41 | – | – | <1 | Cc1c(-c2ccc(NC(=O)[C@@H](NC(=O)c3ccnn3C(C)C)C(C3CC3)C3CC3)nc2F)c(C(F)(F)F)cc[n+]1[O-] (single isomer, unassigned) [Example 55] |
